Reference: ChEMBL document CHEMBL4613208, “Isatin derivatives and their anti-bacterial activities” (Eur J Med Chem, 2019)
Converted amounts (≈) assume the structure as drawn.

Tests used:
Staphylococcus aureus [1] = assay: Antibacterial activity against Staphylococcus aureus by two-fold serial dilution technique; format: functional
Escherichia coli [2] = assay: Antibacterial activity against Escherichia coli by two-fold serial dilution technique; format: functional
Pseudomonas aeruginosa [3] = assay: Antibacterial activity against Pseudomonas aeruginosa by two-fold serial dilution technique; format: functional
Bacillus subtilis [4] = assay: Antibacterial activity against Bacillus subtilis by two-fold serial dilution technique; format: functional
[5] = test system: Staphylococcus epidermidis; assay: Antibacterial activity against Staphylococcus epidermidis after 24 hrs by paper disc diffusion technique; format: functional
Pseudomonas aeruginosa [6] = assay: Antibacterial activity against Pseudomonas aeruginosa after 24 hrs by paper disc diffusion technique; format: functional
Klebsiella pneumoniae = assay: Antibacterial activity against Klebsiella pneumoniae after 24 hrs by paper disc diffusion technique; format: functional
Staphylococcus aureus [7] = assay: Antibacterial activity against Staphylococcus aureus after 24 hrs by paper disc diffusion technique; format: functional
Micrococcus luteus = assay: Antibacterial activity against Micrococcus luteus after 24 hrs by paper disc diffusion technique; format: functional
Escherichia coli [8] = assay: Antibacterial activity against Escherichia coli after 24 hrs by paper disc diffusion technique; format: functional
Escherichia coli [9] = assay: Antibacterial activity against Escherichia coli ATCC 25922 after 24 hrs by agar well diffusion technique; format: functional; conditions: ATCC 25922, 24 h
Staphylococcus aureus [10] = assay: Antibacterial activity against Staphylococcus aureus ATCC 25923 after 24 hrs by agar well diffusion technique; format: functional; conditions: ATCC 25923, 24 h
Shigella dysenteriae = assay: Antibacterial activity against Shigella dysenteriae after 24 hrs by agar well diffusion technique; format: functional
Bacillus cereus = assay: Antibacterial activity against Bacillus cereus after 24 hrs by agar well diffusion technique; format: functional
Escherichia coli [11] = assay: Antibacterial activity against Escherichia coli assessed as zone of inhibition at 20 mg/ml; format: functional; conditions: read-out: IZ
Pseudomonas aeruginosa [12] = assay: Antibacterial activity against Pseudomonas aeruginosa assessed as zone of inhibition at 20 mg/ml; format: functional; conditions: read-out: IZ
Bacillus subtilis [13] = assay: Antibacterial activity against Bacillus subtilis assessed as zone of inhibition at 20 mg/ml; format: functional; conditions: read-out: IZ
Staphylococcus aureus [14] = assay: Antibacterial activity against Staphylococcus aureus assessed as zone of inhibition at 20 mg/ml; format: functional; conditions: read-out: IZ
Staphylococcus aureus [15] = assay: Antibacterial activity against Staphylococcus aureus; format: functional, organism-based
Pseudomonas aeruginosa [16] = assay: Antibacterial activity against Pseudomonas aeruginosa; format: functional, organism-based
Escherichia coli [17] = assay: Antibacterial activity against Escherichia coli; format: functional, organism-based
Bacillus subtilis [18] = assay: Antibacterial activity against Bacillus subtilis; format: functional
[19] = Staphylococcus epidermidis, 24 h, read-out: MIC
[20] = Pseudomonas aeruginosa, 24 h, read-out: MIC
[21] = Klebsiella pneumoniae, 24 h, read-out: MIC
[22] = Staphylococcus aureus, 24 h, read-out: MIC
[23] = Micrococcus luteus, 24 h, read-out: MIC
[24] = Escherichia coli, 24 h, read-out: MIC

O=C(N/N=C1\C(=O)Nc2ccc(Br)cc21)N/N=C1\C(=O)Nc2ccc(Br)cc21
MIC (Staphylococcus aureus [1]): 6.25 to 100 µg/mL (≈ 12.3 to 198 µM)
MIC (Escherichia coli [2]): 6.25 to 100 µg/mL (≈ 12.3 to 198 µM)
MIC (Pseudomonas aeruginosa [3]): 6.25 to 100 µg/mL (≈ 12.3 to 198 µM)
MIC (Bacillus subtilis [4]): 6.25 to 100 µg/mL (≈ 12.3 to 198 µM)

COc1ccc(/C=N/c2ccc(/N=C3/C(=O)N(CN4CCN(c5cc6c(cc5F)c(=O)c(C(=O)O)cn6C5CC5)CC4)c4ccc(F)cc43)cc2)cc1
MIC [5, 19]: 7.81 to 125 µg/mL (≈ 10.9 to 174 µM)
MIC (Pseudomonas aeruginosa [6]; [20]): 7.81 to 125 µg/mL (≈ 10.9 to 174 µM)
MIC (Klebsiella pneumoniae; [21]): 7.81 to 125 µg/mL (≈ 10.9 to 174 µM)
MIC (Staphylococcus aureus [7]; [22]): 7.81 to 125 µg/mL (≈ 10.9 to 174 µM)
MIC (Micrococcus luteus; [23]): 7.81 to 125 µg/mL (≈ 10.9 to 174 µM)
MIC (Escherichia coli [8]; [24]): 7.81 to 125 µg/mL (≈ 10.9 to 174 µM)

O=C(N/N=C1\C(=O)Nc2ccc(F)cc21)N/N=C1\C(=O)Nc2ccc(F)cc21
MIC (Staphylococcus aureus [1]): 6.25 to 100 µg/mL (≈ 16.3 to 260 µM)
MIC (Escherichia coli [2]): 6.25 to 100 µg/mL (≈ 16.3 to 260 µM)
MIC (Pseudomonas aeruginosa [3]): 6.25 to 100 µg/mL (≈ 16.3 to 260 µM)
MIC (Bacillus subtilis [4]): 6.25 to 100 µg/mL (≈ 16.3 to 260 µM)

O=C(O)c1cn(C2CC2)c2cc(N3CCN(CN4C(=O)/C(=N/c5ccc(/N=C/c6ccc(Cl)cc6)cc5)c5cc(F)ccc54)CC3)c(F)cc2c1=O
MIC [5, 19]: 7.81 to 125 µg/mL (≈ 10.8 to 173 µM)
MIC (Pseudomonas aeruginosa [6]; [20]): 7.81 to 125 µg/mL (≈ 10.8 to 173 µM)
MIC (Klebsiella pneumoniae; [21]): 7.81 to 125 µg/mL (≈ 10.8 to 173 µM)
MIC (Staphylococcus aureus [7]; [22]): 7.81 to 125 µg/mL (≈ 10.8 to 173 µM)
MIC (Micrococcus luteus; [23]): 7.81 to 125 µg/mL (≈ 10.8 to 173 µM)
MIC (Escherichia coli [8]; [24]): 7.81 to 125 µg/mL (≈ 10.8 to 173 µM)

Cc1cc(NS(=O)(=O)c2ccc(/N=C3\C(=O)Nc4ccc(Cl)cc43)cc2)no1
MIC (Escherichia coli [9]): 1 to 15 µg/mL (≈ 2.4 to 36 µM)
MIC (Staphylococcus aureus [10]): 1 to 15 µg/mL (≈ 2.4 to 36 µM)
MIC (Shigella dysenteriae): 1 to 15 µg/mL (≈ 2.4 to 36 µM)
MIC (Bacillus cereus): 1 to 15 µg/mL (≈ 2.4 to 36 µM)

O=C(O)c1cn(C2CC2)c2cc(N3CCN(CN4C(=O)/C(=N/c5ccc(/N=C/c6ccc(O)cc6)cc5)c5cc(F)ccc54)CC3)c(F)cc2c1=O
MIC [5]: 7.81 to 15.62 µg/mL
MIC [5, 19]: 7.81 to 125 µg/mL (≈ 11.1 to 178 µM)
MIC (Pseudomonas aeruginosa [6]): 7.81 to 15.62 µg/mL
MIC (Pseudomonas aeruginosa [6]; [20]): 7.81 to 125 µg/mL (≈ 11.1 to 178 µM)
MIC (Klebsiella pneumoniae): 7.81 to 15.62 µg/mL
MIC (Klebsiella pneumoniae; [21]): 7.81 to 125 µg/mL (≈ 11.1 to 178 µM)
MIC (Staphylococcus aureus [7]): 7.81 to 15.62 µg/mL
MIC (Staphylococcus aureus [7]; [22]): 7.81 to 125 µg/mL (≈ 11.1 to 178 µM)
MIC (Micrococcus luteus): 7.81 to 15.62 µg/mL
MIC (Micrococcus luteus; [23]): 7.81 to 125 µg/mL (≈ 11.1 to 178 µM)
MIC (Escherichia coli [8]): 7.81 to 15.62 µg/mL
MIC (Escherichia coli [8]; [24]): 7.81 to 125 µg/mL (≈ 11.1 to 178 µM)

CC(C)(C)Nc1oc(N(C(=O)CN2C(=O)C(=O)c3ccccc32)C(C)(C)C)c(C(=O)OC(C)(C)C)c1C(=O)OC(C)(C)C
zone of inhibition at 20000 µg/mL (Escherichia coli [11]): 15.6 to 26 mm
zone of inhibition at 20000 µg/mL (Pseudomonas aeruginosa [12]): 15.6 to 26 mm
zone of inhibition at 20000 µg/mL (Bacillus subtilis [13]): 15.6 to 26 mm
zone of inhibition at 20000 µg/mL (Staphylococcus aureus [14]): 15.6 to 26 mm

O=C(N/N=C1\C(=O)N(Cc2ccccc2)c2ccccc21)N/N=C1\C(=O)N(Cc2ccccc2)c2ccccc21
MIC (Staphylococcus aureus [1]): 6.25 to 100 µg/mL (≈ 11.8 to 189 µM)
MIC (Escherichia coli [2]): 6.25 to 100 µg/mL (≈ 11.8 to 189 µM)
MIC (Pseudomonas aeruginosa [3]): 6.25 to 100 µg/mL (≈ 11.8 to 189 µM)
MIC (Bacillus subtilis [4]): 6.25 to 100 µg/mL (≈ 11.8 to 189 µM)

COC(=O)c1c(NC(C)(C)C)oc(N(C(=O)CN2C(=O)/C(=C3/C(=O)N(CC(=O)N(c4oc(NC(C)(C)C)c(C(=O)OC(C)(C)C)c4C(=O)OC(C)(C)C)C(C)(C)C)c4ccccc43)SC2=S)C(C)(C)C)c1C(=O)OC
zone of inhibition at 20000 µg/mL (Escherichia coli [11]): 15.6 to 26 mm
zone of inhibition at 20000 µg/mL (Pseudomonas aeruginosa [12]): 15.6 to 26 mm
zone of inhibition at 20000 µg/mL (Bacillus subtilis [13]): 15.6 to 26 mm
zone of inhibition at 20000 µg/mL (Staphylococcus aureus [14]): 15.6 to 26 mm

O=C1Nc2ccccc2/C1=N/NC(=O)c1cccc(Br)c1
IC50 (Staphylococcus aureus [15]): 30 to 50 µM
IC50 (Pseudomonas aeruginosa [16]): 30 to 50 µM
IC50 (Escherichia coli [17]): 30 to 50 µM

[N-]=[N+]=Nc1ccc(C2=NN(C(=O)CN3C(=O)C(=O)c4ccccc43)C(c3ccc(F)cc3)C2)cc1 (configuration not stated)
MIC (Staphylococcus aureus [15]): 6.25 to 50 µg/mL (≈ 13.3 to 107 µM)
MIC (Pseudomonas aeruginosa [16]): 6.25 to 50 µg/mL (≈ 13.3 to 107 µM)
MIC (Escherichia coli [17]): 6.25 to 50 µg/mL (≈ 13.3 to 107 µM)
MIC (Bacillus subtilis [18]): 6.25 to 50 µg/mL (≈ 13.3 to 107 µM)

Cc1ccc2c(c1)/C(=N/c1nc3ccccc3[nH]1)C(=O)N2
MIC (Escherichia coli [9]): 1 to 15 µg/mL (≈ 3.62 to 54.3 µM)
MIC (Staphylococcus aureus [10]): 1 to 15 µg/mL (≈ 3.62 to 54.3 µM)
MIC (Shigella dysenteriae): 1 to 15 µg/mL (≈ 3.62 to 54.3 µM)
MIC (Bacillus cereus): 1 to 15 µg/mL (≈ 3.62 to 54.3 µM)

Cc1ccc(/C=N/c2ccc(/N=C3/C(=O)N(CN4CCN(c5cc6c(cc5F)c(=O)c(C(=O)O)cn6C5CC5)CC4)c4ccc(F)cc43)cc2)cc1
MIC [5, 19]: 7.81 to 125 µg/mL (≈ 11.1 to 178 µM)
MIC (Pseudomonas aeruginosa [6]; [20]): 7.81 to 125 µg/mL (≈ 11.1 to 178 µM)
MIC (Klebsiella pneumoniae; [21]): 7.81 to 125 µg/mL (≈ 11.1 to 178 µM)
MIC (Staphylococcus aureus [7]; [22]): 7.81 to 125 µg/mL (≈ 11.1 to 178 µM)
MIC (Micrococcus luteus; [23]): 7.81 to 125 µg/mL (≈ 11.1 to 178 µM)
MIC (Escherichia coli [8]; [24]): 7.81 to 125 µg/mL (≈ 11.1 to 178 µM)

O=C(N/N=C1\C(=O)Nc2ccc(C(=O)O)cc21)N/N=C1\C(=O)Nc2ccc(C(=O)O)cc21
MIC (Staphylococcus aureus [1]): 6.25 to 100 µg/mL (≈ 14.3 to 229 µM)
MIC (Escherichia coli [2]): 6.25 to 100 µg/mL (≈ 14.3 to 229 µM)
MIC (Pseudomonas aeruginosa [3]): 6.25 to 100 µg/mL (≈ 14.3 to 229 µM)
MIC (Bacillus subtilis [4]): 6.25 to 100 µg/mL (≈ 14.3 to 229 µM)

Cc1c(C)c2c(c(C)c1O)CCC(C)(C(=O)N/N=C1\C(=O)N(C)c3ccc(Cl)cc31)O2 (configuration not stated)
MIC (Staphylococcus aureus [15]): 12.5 to 100 µg/mL (≈ 28.3 to 226 µM)
MIC (Pseudomonas aeruginosa [16]): 12.5 to 100 µg/mL (≈ 28.3 to 226 µM)
MIC (Escherichia coli [17]): 12.5 to 100 µg/mL (≈ 28.3 to 226 µM)

CN(C)c1ccc(/C=N/c2ccc(/N=C3/C(=O)N(CN4CCN(c5cc6c(cc5F)c(=O)c(C(=O)O)cn6C5CC5)CC4)c4ccc(F)cc43)cc2)cc1
MIC [5, 19]: 7.81 to 125 µg/mL (≈ 10.7 to 171 µM)
MIC (Pseudomonas aeruginosa [6]; [20]): 7.81 to 125 µg/mL (≈ 10.7 to 171 µM)
MIC (Klebsiella pneumoniae; [21]): 7.81 to 125 µg/mL (≈ 10.7 to 171 µM)
MIC (Staphylococcus aureus [7]; [22]): 7.81 to 125 µg/mL (≈ 10.7 to 171 µM)
MIC (Micrococcus luteus; [23]): 7.81 to 125 µg/mL (≈ 10.7 to 171 µM)
MIC (Escherichia coli [8]; [24]): 7.81 to 125 µg/mL (≈ 10.7 to 171 µM)

Cc1c(C)c2c(c(C)c1O)CCC(C)(C(=O)N/N=C1\C(=O)Nc3ccc(F)cc31)O2 (configuration not stated)
MIC (Staphylococcus aureus [15]): 12.5 to 100 µg/mL (≈ 30.4 to 243 µM)
MIC (Pseudomonas aeruginosa [16]): 12.5 to 100 µg/mL (≈ 30.4 to 243 µM)
MIC (Escherichia coli [17]): 12.5 to 100 µg/mL (≈ 30.4 to 243 µM)

O=C(O)c1cn(C2CC2)c2cc(N3CCN(CN4C(=O)/C(=N/c5ccc(/N=C/c6ccc([N+](=O)[O-])cc6)cc5)c5cc(F)ccc54)CC3)c(F)cc2c1=O
MIC [5, 19]: 7.81 to 125 µg/mL (≈ 10.7 to 171 µM)
MIC (Pseudomonas aeruginosa [6]; [20]): 7.81 to 125 µg/mL (≈ 10.7 to 171 µM)
MIC (Klebsiella pneumoniae; [21]): 7.81 to 125 µg/mL (≈ 10.7 to 171 µM)
MIC (Staphylococcus aureus [7]; [22]): 7.81 to 125 µg/mL (≈ 10.7 to 171 µM)
MIC (Micrococcus luteus; [23]): 7.81 to 125 µg/mL (≈ 10.7 to 171 µM)
MIC (Escherichia coli [8]; [24]): 7.81 to 125 µg/mL (≈ 10.7 to 171 µM)
